According to patent US9556179B2 (BRISTOL-MYERS SQUIBB COMPANY, priority 2012, dated 2017):
pIC50: −log10 of the molar value.

What was measured:
[1] = target: CK1ε (Homo sapiens (Human), UniProt P49674); test: CK1ε kinase assay (Caliper LABCHIP electrophoretic separation of fluoresceinated peptide substrate and product); assay type: biochemical; conditions: 200 pM enzyme, 50 μM ATP, 22 hours at room temperature
How it was run: (§1)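 Eleven-concentration compound series in kinase reactions run for 22 hours at room temperature. Terminated with EDTA, with product conversion read by electrophoretic separation. Non-linear regression gave IC50.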

[2] = target: CK1δ (Homo sapiens (Human), UniProt P48730); test: CK1δ kinase assay (Caliper LABCHIP electrophoretic separation of fluoresceinated peptide substrate and product); assay type: biochemical; conditions: 200 pM enzyme, 50 μM ATP, 22 hours at room temperature
How it was run: as §1

Chain of CK1δ (P48730 whole entry): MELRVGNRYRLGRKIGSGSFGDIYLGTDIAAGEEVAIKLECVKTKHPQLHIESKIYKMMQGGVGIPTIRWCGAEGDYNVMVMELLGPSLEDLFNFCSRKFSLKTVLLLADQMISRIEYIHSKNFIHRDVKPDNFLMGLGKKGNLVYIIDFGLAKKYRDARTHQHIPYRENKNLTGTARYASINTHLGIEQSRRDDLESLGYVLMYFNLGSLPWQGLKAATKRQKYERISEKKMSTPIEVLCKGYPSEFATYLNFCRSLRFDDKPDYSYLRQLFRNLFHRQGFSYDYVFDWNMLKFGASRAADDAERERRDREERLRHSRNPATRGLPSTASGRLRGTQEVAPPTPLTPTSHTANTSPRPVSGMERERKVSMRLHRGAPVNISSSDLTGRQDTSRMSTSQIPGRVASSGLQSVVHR
Chain of CK1ε (P49674 whole entry): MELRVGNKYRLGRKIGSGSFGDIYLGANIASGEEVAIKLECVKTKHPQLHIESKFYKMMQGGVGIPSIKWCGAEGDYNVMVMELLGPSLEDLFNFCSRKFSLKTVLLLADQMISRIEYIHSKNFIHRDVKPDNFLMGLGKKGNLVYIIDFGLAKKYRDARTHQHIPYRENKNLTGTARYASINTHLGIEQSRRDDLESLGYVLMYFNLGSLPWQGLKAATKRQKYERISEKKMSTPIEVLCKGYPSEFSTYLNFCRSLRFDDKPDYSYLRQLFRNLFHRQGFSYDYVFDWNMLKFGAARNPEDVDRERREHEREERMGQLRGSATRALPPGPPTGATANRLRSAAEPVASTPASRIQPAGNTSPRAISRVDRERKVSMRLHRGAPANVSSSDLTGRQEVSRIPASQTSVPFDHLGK

Row | SMILES | pIC50 [1] | pIC50 [2]
1 | Cc1nc(-c2ccc(F)cc2)c(-c2ccc3nc(NC(=O)Nc4ccc(C#N)cc4)cn3n2)n1C [Compound 408, 1-(4-cyanophenyl)-3-(6-(4-(4-fluorophenyl)-1,2-dimethyl-1H-imidazol-5-yl)imidazo[1,2-b]pyridazin-2-yl)urea] | 6.53 | 7.89
2 | Cc1nc(-c2ccc(F)cc2)c(-c2ccc3nc(NC(=O)N4CCCC4)cn3n2)n1C [Compound 409, N-(6-(4-(4-fluorophenyl)-1,2-dimethyl-1H-imidazol-5-yl)imidazo[1,2-b]pyridazin-2-yl)pyrrolidine-1-carboxamide] | 7.51 | 7.24
3 | Cc1nc(-c2ccc(F)cc2)c(-c2ccc3nc(NC(=O)c4ccnc(F)c4)c(Br)n3n2)n1C [Compound 411, N-(3-Bromo-6-(4-(4-fluorophenyl)-1,2-dimethyl-1H-imidazol-5-yl)imidazo[1,2-b]pyridazin-2-yl)-2-fluoroisonicotinamide] | 7.71 | 8.79
4 | Cc1nc(-c2ccc(F)cc2)c(-c2ccc3nc(NC(=O)c4ccnc(F)c4)c(Cl)n3n2)n1C [Compound 412, N-(3-Chloro-6-(4-(4-fluorophenyl)-1,2-dimethyl-1H-imidazol-5-yl)imidazo[1,2-b]pyridazin-2-yl)-2-fluoroisonicotinamide] | 7.57 | 8.65
5 | Cc1nc(-c2ccc(F)cc2)c(-c2ccc3nc(NC(=O)c4ccnc(F)c4)c(C)n3n2)n1C [Compound 413, 2-Fluoro-N-(6-(4-(4-fluorophenyl)-1,2-dimethyl-1H-imidazol-5-yl)-3-methylimidazo[1,2-b]pyridazin-2-yl)isonicotinamide] | 7.71 | 8.94
6 | Cc1nc(-c2ccc(F)cc2)c(-c2ccc3nc(NC(=O)C(C)(C)C)cn3n2)n1C [Compound 414, N-(6-(4-(4-Fluorophenyl)-1,2-dimethyl-1H-imidazol-5-yl)imidazo[1,2-b]pyridazin-2-yl)pivalamide] | 8.36 | 9.36
7 | O=C(Nc1cn2nc(-c3c(-c4ccc(F)cc4)ncn3CC(F)F)ccc2n1)c1cnc(-c2ccncc2)s1 [Compound 415, N-(6-(1-(2,2-Difluoroethyl)-4-(4-fluorophenyl)-1H-imidazol-5-yl)imidazo[1,2-b]pyridazin-2-yl)-2-(pyridin-4-yl)thiazole-5-carboxamide] | 8.06 | 8.92
8 | O=C(Nc1cn2nc(-c3c(-c4ccc(F)cc4)ncn3-c3ccc(F)cc3)ccc2n1)c1ccnc(F)c1 [Compound 416, N-(6-(1,4-bis(4-Fluorophenyl)-1H-imidazol-5-yl)imidazo[1,2-b]pyridazin-2-yl)-2-fluoroisonicotinamide] | 7.24 | 8.60
9 | O=C(Nc1cn2nc(-c3c(-c4ccc(F)cc4)ncn3-c3ccc(F)cc3)ccc2n1)c1ccnc(N2CCOCC2)c1 [Compound 419, N-(6-(1,4-bis(4-Fluorophenyl)-1H-imidazol-5-yl)imidazo[1,2-b]pyridazin-2-yl)-2-morpholinoisonicotinamide] | 7.45 | 8.51
10 | O=C(Nc1cn2nc(-c3c(-c4ccc(F)cc4)ncn3-c3cccnc3)ccc2n1)c1ccnc(N2CCOCC2)c1 [Compound 424, N-(6-(4-(4-Fluorophenyl)-1-(pyridin-3-yl)-1H-imidazol-5-yl)imidazo[1,2-b]pyridazin-2-yl)-2-morpholinoisonicotinamide] | 7.87 | 9.00
11 | O=C(Nc1cn2nc(-c3c(-c4ccc(F)cc4)ncn3C3CC3)ccc2n1)c1ccnc(F)c1 [Compound 426, N-(6-(1-Cyclopropyl-4-(4-fluorophenyl)-1H-imidazol-5-yl)imidazo[1,2-b]pyridazin-2-yl)-2-fluoroisonicotinamide] | 7.98 | 9.05
12 | O=C(Nc1cn2nc(-c3c(-c4ccc(F)cc4)ncn3C3CC3)ccc2n1)c1ccncc1 [Compound 427, N-(6-(1-Cyclopropyl-4-(4-fluorophenyl)-1H-imidazol-5-yl)imidazo[1,2-b]pyridazin-2-yl)isonicotinamide] | 8.19 | 9.15
13 | O=C(Nc1cn2nc(-c3c(-c4ccc(F)cc4)ncn3C3CC3)ccc2n1)c1ccnc(N2CCOCC2)c1 [Compound 428, N-(6-(1-Cyclopropyl-4-(4-fluorophenyl)-1H-imidazol-5-yl)imidazo[1,2-b]pyridazin-2-yl)-2-morpholinoisonicotinamide] | 8.04 | 9.05
14 | O=C(Nc1cn2nc(-c3c(-c4ccc(F)cc4)ncn3C3CCOCC3)ccc2n1)c1cc(F)nc(F)c1 [Compound 433, 2,6-Difluoro-N-(6-(4-(4-fluorophenyl)-1-(tetrahydro-2H-pyran-4-yl)-1H-imidazol-5-yl)imidazo[1,2-b]pyridazin-2-yl)isonicotinamide] | 8.92 | 9.70
15 | O=C(Nc1cn2nc(-c3c(-c4ccc(F)cc4)ncn3C3CCOCC3)ccc2n1)c1ccncc1 [Compound 434, N-(6-(4-(4-Fluorophenyl)-1-(tetrahydro-2H-pyran-4-yl)-1H-imidazol-5-yl)imidazo[1,2-b]pyridazin-2-yl)isonicotinamide] | 8.74 | 9.52
16 | O=C(Nc1cn2nc(-c3c(-c4ccc(F)cc4)nc4n3CCC4)ccc2n1)c1ccnc(F)c1 [Compound 436, 2-Fluoro-N-(6-(2-(4-fluorophenyl)-6,7-dihydro-5H-pyrrolo[1,2-a]imidazol-3-yl)imidazo[1,2-b]pyridazin-2-yl)isonicotinamide] | 8.70 | 9.40
17 | O=C(Nc1cn2nc(-c3c(-c4ccc(F)cc4)nc4n3CCC4)ccc2n1)c1ccncc1 [Compound 438, N-(6-(2-(4-Fluorophenyl)-6,7-dihydro-5H-pyrrolo[1,2-a]imidazol-3-yl)imidazo[1,2-b]pyridazin-2-yl)isonicotinamide] | 8.68 | 9.52
18 | O=C(Nc1cn2nc(-c3c(-c4ccc(F)cc4)nc4n3CCC4)ccc2n1)c1ccnc(N2CCOCC2)c1 [Compound 439, N-(6-(2-(4-Fluorophenyl)-6,7-dihydro-5H-pyrrolo[1,2-a]imidazol-3-yl)imidazo[1,2-b]pyridazin-2-yl)-2-morpholinoisonicotinamide] | 8.48 | 8.89

Results, then the molecule that gave them:

Row | pIC50 [1] | pIC50 [2] | SMILES
19 | 8.79 | 9.24 | Cc1c(C(=O)Nc2cn3nc(-c4c(-c5ccc(F)cc5)nc(C)n4C)ccc3n2)cccc1-c1cccnc1 [Compound 403, N-(6-(4-(4-Fluorophenyl)-1,2-dimethyl-1H-imidazol-5-yl)imidazo[1,2-b]pyridazin-2-yl)-2-methyl-3-(pyridin-3-yl)benzamide]
20 | 8.38 | 8.98 | Cc1nc(-c2ccc(F)cc2)c(-c2ccc3nc(NC(=O)c4sc(-c5cccnc5)nc4C(F)(F)F)cn3n2)n1C [Compound 404, N-(6-(4-(4-Fluorophenyl)-1,2-dimethyl-1H-imidazol-5-yl)imidazo[1,2-b]pyridazin-2-yl)-2-(pyridin-3-yl)-4-(trifluoromethyl)thiazole-5-carboxamide]
21 | 8.38 | 8.98 | Cc1nc(-c2ccc(F)cc2)c(-c2ccc3nc(NC(=O)c4sc(-c5ccncc5)nc4C(F)(F)F)cn3n2)n1C [Compound 405, N-(6-(4-(4-Fluorophenyl)-1,2-dimethyl-1H-imidazol-5-yl)imidazo[1,2-b]pyridazin-2-yl)-2-(pyridin-4-yl)-4-(trifluoromethyl)thiazole-5-carboxamide]
22 | 8.53 | 9.46 | Cc1nc(-c2ccc(F)cc2)c(-c2ccc3nc(NC(=O)c4cncc(-c5ccc(F)nc5)c4)cn3n2)n1C [Compound 406, 6′-Fluoro-N-(6-(4-(4-fluorophenyl)-1,2-dimethyl-1H-imidazol-5-yl)imidazo[1,2-b]pyridazin-2-yl)-[3,3′-bipyridine]-5-carboxamide]
23 | 7.22 | 7.46 | Cc1nc(-c2ccc(F)cc2)c(-c2ccc3nc(NC(=O)N(C)c4ccccc4)cn3n2)n1C [Compound 407, 3-(6-(4-(4-Fluorophenyl)-1,2-dimethyl-1H-imidazol-5-yl)imidazo[1,2-b]pyridazin-2-yl)-1-methyl-1-phenylurea]
24 | 6.82 | 8.12 | Cc1nc(-c2ccc(F)cc2)c(-c2ccc3nc(NC(=O)Nc4cccc(C#N)c4)cn3n2)n1C [Compound 410, 1-(3-cyanophenyl)-3-(6-(4-(4-fluorophenyl)-1,2-dimethyl-1H-imidazol-5-yl)imidazo[1,2-b]pyridazin-2-yl)urea]
25 | 7.10 | 8.19 | O=C(Nc1cn2nc(-c3c(-c4ccc(F)cc4)ncn3-c3ccc(F)cc3)ccc2n1)c1cc(F)nc(F)c1 [Compound 418, N-(6-(1,4-bis(4-Fluorophenyl)-1H-imidazol-5-yl)imidazo[1,2-b]pyridazin-2-yl)-2,6-difluoroisonicotinamide]
26 | 7.73 | 8.44 | O=C(Nc1cn2nc(-c3c(-c4ccc(F)cc4)ncn3-c3ccc(F)cc3)ccc2n1)c1cccc(-c2cccnc2)c1 [Compound 420, N-(6-(1,4-bis(4-Fluorophenyl)-1H-imidazol-5-yl)imidazo[1,2-b]pyridazin-2-yl)-3-(pyridin-3-yl)benzamide]
27 | 7.74 | 8.96 | O=C(Nc1cn2nc(-c3c(-c4ccc(F)cc4)ncn3-c3cccnc3)ccc2n1)c1cc(F)nc(F)c1 [Compound 423, 2,6-Difluoro-N-(6-(4-(4-fluorophenyl)-1-(pyridin-3-yl)-1H-imidazol-5-yl)imidazo[1,2-b]pyridazin-2-yl)isonicotinamide]
28 | 7.96 | 8.96 | O=C(Nc1cn2nc(-c3c(-c4ccc(F)cc4)ncn3-c3cccnc3)ccc2n1)c1cccc(-c2cccnc2)c1 [Compound 425, N-(6-(4-(4-Fluorophenyl)-1-(pyridin-3-yl)-1H-imidazol-5-yl)imidazo[1,2-b]pyridazin-2-yl)-3-(pyridin-3-yl)benzamide]
29 | 8.89 | 9.40 | O=C(Nc1cn2nc(-c3c(-c4ccc(F)cc4)nc4n3CCC4)ccc2n1)c1cccc(-c2cccnc2)c1 [Compound 440, N-(6-(2-(4-Fluorophenyl)-6,7-dihydro-5H-pyrrolo[1,2-a]imidazol-3-yl)imidazo[1,2-b]pyridazin-2-yl)-3-(pyridin-3-yl)benzamide]
